Data: patent US20240261253A1, “DAUR[…] AND IT'S USE IN MEDICINE” (Phytotherapeutix Ltd., priority 2021, published 2024)
pEC50: −log10 of the molar value. Converted amounts (≈) assume the structure as drawn. Where two headings read alike, the source gives them in different places.

Experiments:
Human Coronavirus OC43 = assay: inhibition of HCoV OC43 infection in H292 cells (CPE/cell viability assay); format: cell-based, Human Coronavirus OC43 (Beta); details: for EC50: Betacoronavirus 1, OC43, NCI-H292, 120 h; for efficacy against HCoV OC43: H292 cells
Procedure: (§1) A dilution series of each test compound (8-point, 10-fold dose titration) was added prophylactically for one hour, to cells. Cells were infected with virus for one hour, at a single concentration (100×TCID50 (Median Tissue Culture Infectious Dose). Additional media was added to the wells, with equivalent concentrations of compound added in for the duration of the study. Vehicle and positive control wells were set up to control for any influence of the compounds alone on cell viability. Cells were visually inspected for the appearance of any cytopathic effects (CPE). A cell viability assay was performed once CPE was complete.
(§2) Inhibition was calculated as follows: […]
(§3) where: • A: mean optical density of test, • B: mean optical density of virus controls, • C: mean optical density of cell controls. • Negative values occur when A<B, due either to natural variation or compound toxicity.
(§4) • EC50: The concentration which results in 50% viral inhibition, following the addition of compounds. • CC50: The concentration which results in 50% cell viability, following the addition of compounds.
(§5) • 1. Cells permissible to infection, indicated in the Conditions Table, were grown and seeded into 96-well plates to a confluency of 80-90%. • 2. The test compounds were serially diluted 10-fold into 8 concentrations in total. The serial dilution was added to the cells for 1 hour prior to infection with each virus. Positive control compounds were included using the same treatment regimen. • 3. After pre-treatment, each virus was added to the cells for 1 h at 100×TCID50. A mock infection of blank media was added to the uninfected controls. • 4. After infection, the virus/media was removed and an overlay medium was added, with equivalent concentrations of the test compounds added in. • 5. […] A cell viability assay was performed on all conditions, with cells receiving the test treatment compared to the vehicle treated and uninfected controls.

Human Coronavirus 229E = assay: inhibition of HCoV 229E infection in 16HBE cells (CPE/cell viability assay); format: cell-based, Human Coronavirus 229E (Alpha)
Procedure: as §1, §2, §3, §4
• 1. Cells permissible to infection, indicated in the Conditions Table, were grown and seeded into 96-well plates to a confluency of 80-90%. • 2. The test compounds were serially diluted 10-fold into 8 concentrations in total. […]

HIV = details: cited from earlier work
[1] = cytotoxicity (cell viability) in H292 cells; format: cell-based; details: human, read-out: CC50 (50% cell viability)
Procedure: as §1, §4, §5

[2] = cytotoxicity (cell viability) in 16HBE cells; format: cell-based; details: human, read-out: CC50 (50% cell viability)
Procedure: as §1, §4, §5

uninfected H9 cells = details: cited from earlier work
[3] = 5 mg/kg i.p., rodents; cited from earlier work
H292 cells = assay: cytotoxicity (cell viability) in H292 cells; format: cell-based; details: 5 days
Procedure: as §1, §4, §5

16HBE cells = assay: cytotoxicity (cell viability) in 16HBE cells; format: cell-based; details: 5 days
Procedure: as §1, §4, §5

CCC(CC)COC(=O)[C@H](C)N[P@](=O)(OC[C@H]1O[C@@](C#N)(c2ccc3c(N)ncnn23)[C@H](O)[C@@H]1O)Oc1ccccc1 [Remdesivir, reference compound]
EC50 (Human Coronavirus OC43; HCoV OC43, H292 cells, 5 days, read-out: EC50 (50% viral inhibition)): 0.029 µg/mL
pEC50 (Human Coronavirus OC43; Betacoronavirus 1, OC43, NCI-H292, HCoV OC43, read-out: EC50): 7.00 to 8.00
pEC50 (Human Coronavirus 229E; 16HBE, read-out: EC50): 7.00 to 8.00
EC50 (Human Coronavirus 229E; 120 h, 16HBE cells, 5 days, read-out: EC50 (50% viral inhibition)): 0.023 µg/mL

CC(C)=CCC[C@@]1(C)[C@@H]2CC[C@]3(C)Oc4cc(C)c(C(=O)O)c(O)c4[C@H]1[C@H]23 [Rhododaurichromanic acid A]
anti-HIV activity EC50 (HIV; in vitro): 0.37 µg/mL

CC(C)=CCC/C(C)=C/CC[C@@]1(C)C=Cc2c(cc(C)c(C(=O)O)c2O)O1 [(+)-DCA, (S,E)-2-(4,8-dimethylnona-3,7-dien-1-yl)-5-hydroxy-2,7-dimethyl-2H-chromene-6-carboxylic acid]
CC50 at 5 days [1]: 9.27 µg/mL (≈ 25 µM)
CC50 at 5 days [2]: 20.7 µg/mL (≈ 55.9 µM)
inhibition of uninfected H9 growth EC50 (uninfected H9 cells): 21.1 µg/mL
anti-HIV activity EC50 (HIV; acutely infected H9 cells): 0.00567 µg/mL
efficacy against HCoV OC43 (Human Coronavirus OC43): Efficacy was seen

CCCCCc1cc2c(c(O)c1C(=O)O)C=CC(C)(CCC=C(C)C)O2 (centres unmarked) [CBCA, 5-hydroxy-2-methyl-2-(4-methylpent-3-enyl)-7-pentylchromene-6-carboxylic acid]
plasma Cmax [3]: approx. 4 μg/mL
side effects [3]: without any major side effects

CC(C)=CCC/C(C)=C/CCC1(C)C=Cc2c(cc(C)c(C(=O)O)c2O)O1 (stereo in doubt) [(−)-DCA, (−)-(2S)-2-[(3E)-4,8-dimethylnona-3,7-dienyl]-5-hydroxy-2,7-dimethylchromene-6-carboxylic acid]
CC50 at 5 days [1]: 15.1 µg/mL (≈ 40.8 µM)
CC50 at 5 days [2]: 35.7 µg/mL (≈ 96.4 µM)
EC50 (Human Coronavirus OC43; read-out: EC50 (50% viral inhibition), HCoV OC43, H292 cells, 5 days): 4.39 µg/mL
efficacy against HCoV OC43 (Human Coronavirus OC43): Efficacy was seen
EC50 (50% viral inhibition) (Human Coronavirus OC43; HCoV OC43, H292 cells, 5 days): 4.382 µg/mL (≈ 11.8 µM)

CC(C)=CCC[C@]1(C)[C@@H]2CC[C@]3(C)Oc4cc(C)c(C(=O)O)c(O)c4[C@H]1[C@H]23 [Rhododaurichromanic acid B]
anti-HIV activity (HIV; in vitro): no anti-HIV activity

CC(C)=CCC/C(C)=C/CCC1(C)C=Cc2c(cc(C)c(C(=O)O)c2O)O1 (racemic) [1:1 mixture of (+)-DCA with (−)-DCA, (E)-2-(4,8-dimethylnona-3,7-dien-1-yl)-5-hydroxy-2,7-dimethyl-2H-chromene-6-carboxylic acid]
CC50 at 5 days [1]: 5.9 µg/mL
CC50 (50% cell viability) (H292 cells): 5.938 µg/mL
CC50 at 5 days [2]: 8.2 µg/mL
CC50 (50% cell viability) (16HBE cells): 8.225 µg/mL
efficacy against HCoV OC43 (Human Coronavirus OC43; listed as 1:1 mix of both): Efficacy was seen
